Measurements from patent US20030148404A1, “Peptides and substances, methods and devices using same for diagnosing and treating neurodegenerative disorders” (Ramot University Authority For Applied Research & …, priority 2000, published 2003).
Non-standard residues stand in square brackets, D forms with d. No end group written: not given here. pS = N[C@@H](COP(=O)(O)O)C(=O)O

Tests used:
anti-NF—H antibodies [1] = experiment: Streptavidin-biotin ELISA: serum IgG binding to biotinylated NF-H peptide (protocol optimisation, pooled AD serum); set-up: species or system human; conditions: serum pooled from 10 AD patients; streptavidin plates blocked or not blocked; FIG. 1
Procedure: Solutions and Materials: Tris Buffered Saline (TBS): 50 mM Tris-HCl, pH 7.4 (Tris (Sigma, T-1378); HCl (Merck 1.00319.1000)) 200 mM NaCl (Merck, 1.06404.1000). TBST: 0.05% (w/v) Tween-20 (Sigma, P-7949) in TBS. Phosphate Buffered Saline (PBS): 0.1 M phosphate buffer, pH 7.2 (Sodium phosphate, monobasic (Sigma. S-8182) and Sodium phosphate, dibasic (Sigma, S-7907)). 200 mM NaCl (Merck, 1.06404.1000). PBST: 0.05% (w/v) Tween-20 (Sigma, P-7949) in PBS. Dilution/Blocking buffer: 0.5% Gelatin (Difco, 0143-17-9) in TBST. Streptavidin stock solution: 2 mg/ml Streptavidin (Sigma, S4762) in purified water. Aliquoted and kept at −20° C., this solution is stable indefinitely. Multiwell Plates: Nunc Maxisorp (Cat. No. 442404) 96 well C-shaped microplates. Secondary antibody: Goat anti-human IgG Horse radish peroxidase conjugate (Jackson, 109-035-088). Substrate solution: 1 mg/ml OPD (Sigma, P-8412)+0.005% H2O2 (Merck, 1.07210.0250) in […] Sodium Citrate buffer, pH 5 (Merck, 1.00 244.1000).
A Streptavidin stock solution (2 mg/ml Streptavidin prepared in purified water, aliquoted, and stored at −20° C.) was diluted 1:400 in ddH2O and a 100 μl aliquot was added to each well of a multiwell plate (96 well C-shaped microplates). […]
OD was measured at 450 nm and 620 nm every minute over a period of 10-15 minutes. […]

anti-NF—H antibodies [2] = experiment: ELISA comparison of AD and NC sera with peptides; separation algorithms and grouping of peptides into FACTs; format: binding, human; conditions: single peptide
Procedure: A Streptavidin stock solution (2 mg/ml Streptavidin prepared in purified water, aliquoted, and stored at −20° C.) was diluted 1:400 in ddH2O and a 100 μl aliquot was added to each well of a multiwell plate (96 well C-shaped microplates). The plates were incubated at 37° C. overnight until the liquid was entirely evaporated and stored until use at 4° C. in plastic bags containing a desiccating material. Such coated plates retained their activity for at least few days. The plates were washed 4 times by immersing in TBST. 200 μl of blocking solution were added to each of the wells. The plates were then incubated for 1 hour at room temperature. 100 μl of the biotinylated peptide (1 μg/ml in TBST) were added to each of the wells with the exception of the control wells. The plates were then incubated for 1 hour at room temperature.
Following incubation, the plates were washed in TBST 4 times as above. A 100 μl aliquot of serum which was diluted in a dilution buffer was added to each well and the plates were incubated for 1 hour at room temperature.
Following this incubation the wells were washed in TBST 4 times as above. A 100 μl aliquot of a secondary antibody (Goat anti-human IgG Horse radish peroxidase conjugate) which was diluted 1:2000 in dilution buffer was added to each well and the plates were incubated for 1 hour at room temperature.
The wells were then washed in TBST 4 times as above followed by two washes in TBS (TBST w/o Tween-20).
A 100 μl aliquot of the substrate solution was added to each well and the plates were incubated at room temperature.
OD was measured at 450 nm and 620 nm every minute over a period of 10-15 minutes.
Employing the above optimized parameters, eight AD and eight NC sera were analyzed using peptide 3M (SEQ ID NO:31). The experiment was repeated over a period of four days, employing four different plates each day. Two plates were preblocked with Gelatin, while two were not. In one experiment chloroform treated serum was analyzed on two additional plates. Three AD sera consistently gave rise to high signals in all experiments. One AD serum caused high signals in 10 out of the 13 plates and four AD sera were consistently negative. One NC sera caused high signals in some of the plates in the experiments conducted on all four days. Two additional NC sera gave rise to high signals in some of the plates in the experiments conducted on three of the four days. […] The reproducibility of the experiments was assessed by averaging the rank-order numbers of each sample in every experiment (Table 3). […]
A series of experiments were performed in which 48 AD and 48 NC were analyzed by the use of 17 different peptides (INO; 2L; 2LR; 3NO; 3L; 3M; 3R; 3LM; 3LR; 4LM; 4MR; 4LMR; 5LM; 6LR; 7MR; 8LMR and 8LMR-V). […]

A K S P A E A K S(PO3H) P V K E E A K S P-OH (AKSPAEAK[pS]PVKEEAKSP-OH; N-terminus assumed; SMILES CC(C)[C@H](NC(=O)[C@@H]1CCCN1C(=O)[C@H](COP(=O)(O)O)NC(=O)[C@H](CCCCN)NC(=O)[C@H](C)NC(=O)[C@H](CCC(=O)O)NC(=O)[C@H](C)NC(=O)[C@@H]1CCCN1C(=O)[C@H](CO)NC(=O)[C@H](CCCCN)NC(=O)[C@H](C)N)C(=O)N[C@@H](CCCCN)C(=O)N[C@@H](CCC(=O)O)C(=O)N[C@@H](CCC(=O)O)C(=O)N[C@@H](C)C(=O)N[C@@H](CCCCN)C(=O)N[C@@H](CO)C(=O)N1CCC[C@H]1C(=O)O) [3M]
saturating concentration of the peptide (anti-NF—H antibodies [1]): 0.4 to 0.8 µg/mL | sensitivity (anti-NF—H antibodies [2]; eight AD and eight NC samples): 50% | specificity (anti-NF—H antibodies [2]; eight AD and eight NC samples): 87% | AD cases detected (anti-NF—H antibodies [2]; eight AD and eight NC sera, pre-blocked plates): four out of eight | false positive signal (anti-NF—H antibodies [2]; eight AD and eight NC sera, pre-blocked plates (sample No. 485)): one
